Source: the supplement of paper PMC9663587

What was measured:
Assay in all cases: GR value, 72 h; higher = faster growth (1 = untreated, <0 = killing);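 also: breast cancer and non-malignant breast epithelial lines, nine half-log doses, viable cells counted by Hoechst and LIVE/DEAD dye imaging versus time-zero plates and DMSO controls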
THZ531 = compound: CN(C)C/C=C/C(=O)Nc1ccc(C(=O)N2CCC[C@@H](Nc3ncc(Cl)c(-c4c[nH]c5ccccc45)n3)C2)cc1 [THZ531]
Neratinib/HKI272 = compound: CCOc1cc2ncc(C#N)c(Nc3ccc(OCc4ccccn4)c(Cl)c3)c2cc1NC(=O)/C=C/CN(C)C [Neratinib/HKI272]
Flavopiridol = compound: CN1CC[C@H](c2c(O)cc(O)c3c(=O)cc(-c4ccccc4Cl)oc23)[C@H](O)C1 [Flavopiridol]
THZ1 = compound: CN(C)C/C=C/C(=O)Nc1ccc(C(=O)Nc2cccc(Nc3ncc(Cl)c(-c4c[nH]c5ccccc45)n3)c2)cc1 [THZ1]
[1] = compound: CC(=O)c1c(C)c2cnc(Nc3ccc(N4CCNCC4)cn3)nc2n(C2CCCC2)c1=O
YKL-5-124 = compound: C=CC(=O)Nc1ccc(C(=O)Nc2[nH]nc3c2CN(C(=O)N[C@H](CN(C)C)c2ccccc2)C3(C)C)cc1 [YKL-5-124]

Cell Line: MDAMB361
- GR value (THZ531; 0.0001 µM): 0.955 GR
- GR value (THZ531; 0.0003162 µM): 0.912 GR
- GR value (THZ531; 0.001 µM): 0.758 GR
- GR value (THZ531; 0.003162 µM): 0.849 GR
- GR value (THZ531; 0.01 µM): 1.06 GR
- GR value (THZ531; 0.03162 µM): 0.299 GR
- GR value (THZ531; 0.1 µM): -0.82 GR
- GR value (THZ531; 0.3162 µM): -0.756 GR
- GR value (THZ531; 1 µM): -0.539 GR
- GR value (Neratinib/HKI272; 0.0003162 µM): 0.976 GR
- GR value (Neratinib/HKI272; 0.001 µM): 0.848 GR
- GR value (Neratinib/HKI272; 0.003162 µM): 0.824 GR
- GR value (Neratinib/HKI272; 0.01 µM): 0.783 GR
- GR value (Neratinib/HKI272; 0.03162 µM): 0.639 GR
- GR value (Neratinib/HKI272; 0.1 µM): 0.514 GR
- GR value (Neratinib/HKI272; 0.3162 µM): 0.486 GR
- GR value (Neratinib/HKI272; 1 µM): 0.241 GR
- GR value (Neratinib/HKI272; 3.162 µM): -0.516 GR
- GR value (Flavopiridol; 0.0001 µM): 1.05 GR
- GR value (Flavopiridol; 0.0003162 µM): 0.905 GR
- GR value (Flavopiridol; 0.001 µM): 0.752 GR
- GR value (Flavopiridol; 0.003162 µM): 0.73 GR
- GR value (Flavopiridol; 0.01 µM): 0.942 GR
- GR value (Flavopiridol; 0.03162 µM): 0.753 GR
- GR value (Flavopiridol; 0.1 µM): 0.562 GR
- GR value (Flavopiridol; 0.3162 µM): -0.0494 GR
- GR value (Flavopiridol; 1 µM): -0.402 GR
- GR value (THZ1; 0.0001 µM): 0.939 GR
- GR value (THZ1; 0.0003162 µM): 0.772 GR
- GR value (THZ1; 0.001 µM): 0.986 GR
- GR value (THZ1; 0.003162 µM): 0.521 GR
- GR value (THZ1; 0.01 µM): 0.463 GR
- GR value (THZ1; 0.03162 µM): 0.153 GR
- GR value (THZ1; 0.1 µM): -0.511 GR
- GR value (THZ1; 0.3162 µM): -0.804 GR
- GR value (THZ1; 1 µM): -0.71 GR
- GR value ([1]; 0.0003162 µM): 0.963 GR
- GR value ([1]; 0.001 µM): 1.12 GR
- GR value ([1]; 0.003162 µM): 0.976 GR
- GR value ([1]; 0.01 µM): 0.78 GR
- GR value ([1]; 0.03162 µM): 0.319 GR
- GR value ([1]; 0.1 µM): 0.172 GR
- GR value ([1]; 0.3162 µM): 0.0854 GR
- GR value ([1]; 1 µM): 0.151 GR
- GR value ([1]; 3.162 µM): 0.184 GR
- GR value (YKL-5-124; 0.001 µM): 0.264 GR
- GR value (YKL-5-124; 0.003162 µM): 0.0247 GR
- GR value (YKL-5-124; 0.01 µM): -0.0567 GR
- GR value (YKL-5-124; 0.03162 µM): -0.0052 GR
- GR value (YKL-5-124; 0.1 µM): -0.0751 GR
- GR value (YKL-5-124; 0.3162 µM): -0.226 GR
- GR value (YKL-5-124; 1 µM): -0.188 GR
- GR value (YKL-5-124; 3.162 µM): -0.358 GR
- GR value (YKL-5-124; 10 µM): -0.881 GR
